Values after ≈ are worked out from the molar mass of the structure shown. Read-outs that look alike come from different tables or passages of the source.
How the values were obtained:
[1] = test system: Bacillus subtilis ATCC 6 633; test: MIC, liquid medium dilution; type: cell-based
Procedure: (§1) The method used was a dilution of a liquid medium where a series of tubes received the same quantity of a sterile nutritive media and increasing doses of the test compounds were placed therein. Then each tube was seeded with a bacterial strain and was incubated for 24 or 48 hours at 37° C. in an oven. The increasing inhibition was determined by transillumination to determine the minimum inhibiting concentration (MIC in μg/ml) and the results are reported in the following Tables.

[2] = test system: Enterobacter cloacae 681; test: MIC, liquid medium dilution; type: cell-based
Procedure: as §1

[3] = test system: Escherichia Coli Exp. TO26 B6; test: MIC, liquid medium dilution; type: cell-based
Procedure: as §1

[4] = test system: Escherichia Coli Resistant Gentamicine, Tobramycine R 55 123 D; test: MIC, liquid medium dilution; type: cell-based
Procedure: as §1

[5] = test system: Escherichia Coli Resistant Tetracycline ATCC 11 303; test: MIC, liquid medium dilution; type: cell-based; details: read-out: MIC
Procedure: as §1

[6] = test system: Escherichia Coli Sensitive Tetracycline ATCC 9 637; test: MIC, liquid medium dilution; type: cell-based
Procedure: as §1

[7] = test system: Klebsiella pneumoniae 2 536 Resistant Gentamicine; test: MIC, liquid medium dilution; type: cell-based
Procedure: as §1

[8] = test system: Klebsiella pneumoniae Exp. 52 145; test: MIC, liquid medium dilution; type: cell-based; details: read-out: MIC
Procedure: as §1

[9] = test system: Proteus mirabilis (indol-) A 235; test: MIC, liquid medium dilution; type: cell-based
Procedure: as §1

[10] = test system: Proteus vulgaris (indol+) A 232; test: MIC, liquid medium dilution; type: cell-based
Procedure: as §1

[11] = test system: Providencia Du 48; test: MIC, liquid medium dilution; type: cell-based
Procedure: as §1

[12] = test system: Pseudomonas 3 935 Exp. SG; test: MIC, liquid medium dilution; type: cell-based; details: 3935EXP.SG
Procedure: as §1

[13] = test system: Salmonella typhimurium 420; test: MIC, liquid medium dilution; type: cell-based; details: Salmonella enterica
Procedure: as §1

[14] = test system: Serratia Resistant Gentamicine 2 532; test: MIC, liquid medium dilution; type: cell-based
Procedure: as §1

[15] = test system: Staphylococcus aureus ATCC 6 538 Pen-Sensitive; test: MIC, liquid medium dilution; type: cell-based
Procedure: as §1

[16] = test system: Staphylococcus aureus UC 1 128 Pen-Resistant; test: MIC, liquid medium dilution; type: cell-based
Procedure: as §1

[17] = test system: Staphylococcus aureus exp. n° 54 146; test: MIC, liquid medium dilution; type: cell-based
Procedure: as §1

[18] = test system: Streptococcus faecalis 5 432; test: MIC, liquid medium dilution; type: cell-based
Procedure: as §1

[19] = test system: Streptococcus faecalis 99 F 74; test: MIC, liquid medium dilution; type: cell-based; details: Enterococcus faecalis
Procedure: as §1

[20] = test system: Streptococcus pyogenes A 561; test: MIC, liquid medium dilution; type: cell-based; details: read-out: MIC
Procedure: as §1

[21] = test system: Klebsiella pneumonia 52,145; test: Experimental infection with Klebsiella pneumonia in mice (C); type: in vivo; details: subcutaneous
Procedure: The activity of the products of Examples 4 and 6 was studied on an experimental infection of Klebsiella pneumonia in mice. Groups of 10 male mice weighing 21 g were infected by an intraperitoneal injection of 0.5 ml of a culture in nutrive media of Klebsiella pneumonia 52,145 diluted by 1/1000 with distilled water. The products were administered subcutaneously 30 minutes, 4, 8, 24 and 32 hours after the injection and the number of dead mice was determined during 10th days.

[22] = test system: Escherichia coli (T) O26 B6; test: Experimental infection with Escherichia coli (T) O26 B6 in mice; type: in vivo; details: s. c.
Procedure: The products of Example 6 and 10 were studied for their activity against an experimental infection of Escherichia coli in groups of 10 male mice weighing about 22 g. The mice received an intraperitoneal injection of 0.5 ml of a 24 hour old culture in a nutritive media of Escherichia coli (T) O26 B6 of the Pasteur Institute diluted 1/5.5 with distilled water. The test product was administered subcutaneously or orally 1 hour and 5 and 24 hours after the infection and the number of dead was determined during 8 days.

[23] = Enterobacter cloacae, 681, 48 h
[24] = Enterococcus faecalis, 5432, 24 h
[25] = Enterococcus faecalis, 5432, 48 h

## CO/N=C(\C(=O)NC1C(=O)N2C(C(=O)O)=C(CSc3nnnn3C)CS[C@H]12)c1csc(N)n1 (some centres unmarked) [Example 4, 7-[{2-(2-amino-4-thiazolyl)-2-methoxyiminoacetyl}amino]-3-[(1-methyl-tetrazol-5-yl)-thiomethyl]-ceph-3-eme-4-carboxylic acid]
[1]; ATCC6, 24 h
  MIC: 2 µg/mL (≈ 3.91 µM)
[1]; ATCC6, 48 h, read-out: MIC
  MIC: 5 µg/mL (≈ 9.77 µM)
[2]; Enterobacter cloacae, 681, 24 h
  MIC: 20 µg/mL (≈ 39.1 µM)
[2]; [23]
  MIC: 20 µg/mL (≈ 39.1 µM)
[3]; 24 h
  MIC: 0.2 µg/mL (≈ 0.391 µM)
[3]; 48 h
  MIC: 0.2 µg/mL (≈ 0.391 µM)
[4]; 24 h
  MIC: 0.2 µg/mL (≈ 0.391 µM)
[4]; 48 h
  MIC: 0.2 µg/mL (≈ 0.391 µM)
[5]; ATCC11, 24 h
  MIC: 0.05 µg/mL (≈ 0.0977 µM)
[5]; ATCC11, 48 h
  MIC: 0.05 µg/mL (≈ 0.0977 µM)
[6]; ATCC9, 24 h
  MIC: 0.4 µg/mL (≈ 0.782 µM)
[6]; ATCC9, 48 h
  MIC: 0.4 µg/mL (≈ 0.782 µM)
[7]; 24 h
  MIC: 0.4 µg/mL (≈ 0.782 µM)
[7]; 48 h, read-out: MIC
  MIC: 0.6 µg/mL (≈ 1.17 µM)
[8]; EXP.52145, 24 h
  MIC: 0.02 µg/mL (≈ 0.0391 µM)
[8]; EXP.52145, 48 h
  MIC: 0.02 µg/mL (≈ 0.0391 µM)
[9]; 24 h, read-out: MIC
  MIC: 0.05 µg/mL (≈ 0.0977 µM)
[9]; 48 h, read-out: MIC
  MIC: 0.05 µg/mL (≈ 0.0977 µM)
[10]; 24 h, read-out: MIC
  MIC: 3 µg/mL (≈ 5.86 µM)
[10]; 48 h
  MIC: 20 µg/mL (≈ 39.1 µM)
[11]; DU48, 24 h
  MIC: 2 µg/mL (≈ 3.91 µM)
[11]; DU48, 48 h
  MIC: 2 µg/mL (≈ 3.91 µM)
[12]; 24 h
  MIC: 20 µg/mL (≈ 39.1 µM)
[12]; 48 h, read-out: MIC
  MIC: 40 µg/mL (≈ 78.2 µM)
[13]; 24 h
  MIC: 0.2 µg/mL (≈ 0.391 µM)
[13]; 48 h
  MIC: 0.2 µg/mL (≈ 0.391 µM)
[14]; 24 h, read-out: MIC
  MIC: 1 µg/mL (≈ 1.95 µM)
[14]; 48 h, read-out: MIC
  MIC: 1 µg/mL (≈ 1.95 µM)
[15]; ATCC6, 24 h, read-out: MIC
  MIC: 1 µg/mL (≈ 1.95 µM)
[15]; ATCC6, 48 h, read-out: MIC
  MIC: 1 µg/mL (≈ 1.95 µM)
[16]; UC1, 24 h
  MIC: 2 µg/mL (≈ 3.91 µM)
[16]; UC1, 48 h
  MIC: 2 µg/mL (≈ 3.91 µM)
[17]; 24 h
  MIC: 2 µg/mL (≈ 3.91 µM)
[17]; 48 h
  MIC: 2 µg/mL (≈ 3.91 µM)
[18]; [24]
  MIC: 2 µg/mL (≈ 3.91 µM)
[18]; [25]
  MIC: 2 µg/mL (≈ 3.91 µM)
[19]; 99F74, 24 h
  MIC: 2 µg/mL (≈ 3.91 µM)
[19]; 99F74, 48 h, read-out: MIC
  MIC: 10 µg/mL (≈ 19.5 µM)
[20]; A561, 24 h
  MIC: ≤ 0.02 µg/mL
[20]; A561, 48 h
  MIC: ≤ 0.02 µg/mL
[21]; 5 × 0,1 mg
  Mice alive on the 10th day: 9/10
  Mortality after 5 J (number of dead of 10): 1
[21]; 5 × 0,25 mg
  Mice alive on the 10th day: 10/10

## CO/N=C(\C(=O)NC1C(=O)N2C(C(=O)O)=C(CSC(C)=O)CSC12)c1csc(N)n1 (centres unmarked) [Example 6, 3-acetylthiomethyl-7-[{2-(2-amino-4-thiazolyl)-2-methoxyiminoacetyl}amino]-ceph-3-eme-4-carboxylic acid]
[1]; ATCC6, 24 h
  MIC: 1 µg/mL (≈ 2.12 µM)
[1]; ATCC6, 48 h
  MIC: 2 µg/mL (≈ 4.24 µM)
[2]; Enterobacter cloacae, 681, 24 h, read-out: MIC
  MIC: 10 µg/mL (≈ 21.2 µM)
[2]; [23]
  MIC: 20 µg/mL (≈ 42.4 µM)
[3]; 24 h
  MIC: 0.4 µg/mL (≈ 0.848 µM)
[3]; 48 h
  MIC: 0.4 µg/mL (≈ 0.848 µM)
[4]; 24 h, read-out: MIC
  MIC: 0.6 µg/mL (≈ 1.27 µM)
[4]; 48 h
  MIC: 0.6 µg/mL (≈ 1.27 µM)
[5]; ATCC11, 24 h
  MIC: 0.1 µg/mL (≈ 0.212 µM)
[5]; ATCC11, 48 h
  MIC: 0.1 µg/mL (≈ 0.212 µM)
[6]; ATCC9, 24 h, read-out: MIC
  MIC: 0.6 µg/mL (≈ 1.27 µM)
[6]; ATCC9, 48 h
  MIC: 0.6 µg/mL (≈ 1.27 µM)
[7]; 24 h
  MIC: 1 µg/mL (≈ 2.12 µM)
[7]; 48 h
  MIC: 2 µg/mL (≈ 4.24 µM)
[8]; EXP.52145, 24 h
  MIC: 0.1 µg/mL (≈ 0.212 µM)
[8]; EXP.52145, 48 h
  MIC: 0.1 µg/mL (≈ 0.212 µM)
[9]; 24 h
  MIC: 0.05 µg/mL (≈ 0.106 µM)
[9]; 48 h, read-out: MIC
  MIC: 0.1 µg/mL (≈ 0.212 µM)
[10]; 24 h
  MIC: 5 µg/mL (≈ 10.6 µM)
[10]; 48 h, read-out: MIC
  MIC: 10 µg/mL (≈ 21.2 µM)
[11]; DU48, 24 h, read-out: MIC
  MIC: 10 µg/mL (≈ 21.2 µM)
[11]; DU48, 48 h, read-out: MIC
  MIC: 10 µg/mL (≈ 21.2 µM)
[13]; 24 h
  MIC: 0.4 µg/mL (≈ 0.848 µM)
[13]; 48 h
  MIC: 0.4 µg/mL (≈ 0.848 µM)
[14]; 24 h
  MIC: 1 µg/mL (≈ 2.12 µM)
[14]; 48 h
  MIC: 2 µg/mL (≈ 4.24 µM)
[15]; ATCC6, 24 h
  MIC: 2 µg/mL (≈ 4.24 µM)
[15]; ATCC6, 48 h
  MIC: 2 µg/mL (≈ 4.24 µM)
[16]; UC1, 24 h
  MIC: 5 µg/mL (≈ 10.6 µM)
[16]; UC1, 48 h
  MIC: 5 µg/mL (≈ 10.6 µM)
[17]; 24 h
  MIC: 2 µg/mL (≈ 4.24 µM)
[17]; 48 h
  MIC: 2 µg/mL (≈ 4.24 µM)
[18]; [24]
  MIC: 5 µg/mL (≈ 10.6 µM)
[18]; [25]
  MIC: 5 µg/mL (≈ 10.6 µM)
[19]; 99F74, 24 h
  MIC: 5 µg/mL (≈ 10.6 µM)
[19]; 99F74, 48 h
  MIC: > 40 µg/mL
[20]; A561, 24 h
  MIC: ≤ 0.02 µg/mL
[20]; A561, 48 h
  MIC: ≤ 0.02 µg/mL
[22]; 3 × 0,1 mg
  Mice surviving on the 8th day: 5/10
  Mortality after 5 H 30 (number of dead of 10): 1
  Mortality after 21 H 30 (number of dead of 10): 1
  Mortality after 24 H (number of dead of 10): 1
  Mortality after 47 H (number of dead of 10): 2
[22]; 3 × 0,2 mg
  Mice surviving on the 8th day: 7/10
  Mortality after 21 H 30 (number of dead of 10): 1
  Mortality after 47 H (number of dead of 10): 1
  Mortality after 70 H (number of dead of 10): 1
[22]; 3 × 0,3 mg
  Mice surviving on the 8th day: 10/10
[22]; 3 × 0,05 mg
  Mice surviving on the 8th day: 4/10
  Mortality after 5 J (number of dead of 10): 1
  Mortality after 21 H 30 (number of dead of 10): 4
  Mortality after 54 H (number of dead of 10): 1
[21]; 5 × 0,5 mg
  Mice alive on the 10th day: 10/10
[21]; 5 × 0,25 mg
  Mice alive on the 10th day: 10/10
[21]; 5 × 1 mg
  Mice alive on the 10th day: 10/10

Reference: US4476122A, “Alkyloximes of 7-amino-thiazolyl-acetamido-cephalosporanic acids” (Roussel Uclaf, priority 1976, dated 1984)
